The values below come from patent US20240174690A1, “ANNULATED 2-AMINO-3-CYANO THIOPHENES AND DERIVATIVES FOR THE TREATMENT OF CANCER” (BOEHRINGER INGELHEIM INTERNATIONAL GMBH, priority 2021, published 2024).

What is called pIC50 is the IC50 on a negative log10 scale, so that one unit is a factor of ten. One may read the solubility as the dissolved amount per volume that the medium holds.

pIC50: −log10 of the molar value. Values after ≈ are worked out from the molar mass of the structure shown. Where two headings read alike, the source gives them in different places.

Data set [1] relates to KRAS G12C-dependent Ba/F3 cells. Description: Ba/F3 proliferation assay, KRAS G12C. The class given is cell-based. Conditions: Mus musculus, BaF3, 72 h, AlamarBlue. Summed up:
(§1)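 IL-3-independent Ba/F3 lines driven by transduced KRAS G12C, G12D or G12V, with puromycin withdrawn about ten days before testing. Viability after compound treatment measured by AlamarBlue fluorescence in duplicate, and values derived by curve fitting.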
(Alamar Blue is a resazurin reagent that responds to reducing activity.)

Data set [2] has as its system KRAS G12V-dependent Ba/F3 cells. Description: Ba/F3 proliferation assay, KRAS G12V.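 Also: proliferation IC50 in KRAS G12V-dependent Ba/F3 cells read by AlamarBlue.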 It counts as cell-based. Conditions: Mus musculus, BaF3, 72 h, AlamarBlue. Summed up: as §1
For data set [3], the system named is NCI-H358 cells. Description: NCI-H358 CTG proliferation assay (120 h) (NSCLC, G12C). The class given is cell-based, human. Conditions: Homo sapiens, assay 2, CTG, read-out: H358 (assay 2) IC50. An outline of the steps:
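IC50 values derive from four-parameter nonlinear regression of CellTiter-Glo viability (RLU relative to DMSO wells) after 120 h of exposure. Cells were plated in RPMI-1640 + 10% FCS at 2000 per well (assay 1) or 200 per well (assay 2). Untreated cells were measured at compound addition as T0.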

The nature of data set [4]: Metabolic (microsomal) stability assay, human liver microsomes (HLM). The class given is in vitro ADME. The conditions noted are these: predicted clearance as percent of liver blood flow, 1 μM. Summed up:
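LC-MS/MS tracked parent disappearance at 0, 5, 15, 30 and 60 min in NADPH-initiated incubations with 1 mg/mL human microsomal protein and 1 μM compound at 37°C, pH 7.5. First-order fits gave intrinsic clearance, which was scaled up and reported as % QH. NADPH-free controls were also run.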

A short description of data set [5]: Plasma protein binding assay (PPB), equilibrium dialysis, 10% FCS in PBS. It counts as in vitro ADME. Conditions: bovine, read-out: PPB 10% FCS (% fu). Summed up: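 Test compound (1-10 μmol/L) in 10% FCS in PBS was dialysed for 3-5 h at 37° C versus PBS ± dextran across a semipermeable membrane. LC-MS of both compartments after protein precipitation gave Cserum and Cbuffer, from which the unbound fraction fu was derived.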
Background: In equilibrium dialysis only unbound substance equilibrates across the membrane.

Data set [6] is described as follows: Solubility measurement (DMSO solution method), McIlvaine buffer pH 4.5 or 6.8. It counts as physicochemical. Conditions: aqueous buffer, kinetic from dmso stock, DMSO stock diluted to 250 μM, 24 h shaking at ambient temperature. An outline of the steps: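 Filtrate concentration by LC-UV, calibrated to a known-concentration reference dissolved completely in acetonitrile/water (1:1). Samples came from 250 µM final dilutions of DMSO stock in pH 4.5 or 6.8 McIlvaine buffer, shaken 24 h at ambient temperature, then filtered.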

[7] abbreviates: McIlvaine buffer pH 4.5, read-out: solubility pH 4.5.
The mark [8] stands for this setting: McIlvaine buffer pH 6.8, read-out: solubility pH 6.8.

As for `C[C@H](Oc1cc(-n2ccc(C(=O)N[C@@H]3CCOC3)n2)nc(-c2noc3c2CCC[C@@]32CCCc3sc(N)c(C#N)c32)n1)[C@@H]1CCCN1C` [II-192], the pIC50 in data set [1], in data set [2] and in data set [3] was 8.70 each time. Besides, the “HLM QH” value in data set [4] is 30%. Also, the fraction unbound in data set [5] stood at 0.24. In addition, the solubility at 24 h in data set [6] (setting [7]) was 124 µg/mL (≈ 185 µM); in data set [6] (setting [8]), 59 µg/mL (≈ 88.1 µM).
As for `CO[C@H]1CCN(C)[C@@H]1[C@H](C)Oc1cc(N2CCN(C)C3(CC3)C2)nc(-c2noc3c2CCC[C@@]32CCCc3sc(N)c(C#N)c32)n1` [II-186], the negative-log IC50 (pIC50) in data set [1] was 6.72; in data set [2], 6.49; in data set [3] it was 6.56. For the same compound, the “HLM QH” value in data set [4] is on record as 49%. Also, the fraction unbound in data set [5] came to 0.08. Also, the solubility at 24 h in data set [6] (setting [7]) was more than 140 µg/mL; in data set [6] (setting [8]), 22 µg/mL (≈ 34.1 µM).
